Results on eleven compounds are retold here after patent publication US8318731B2, “Pyrrolopyrimidines” (Janssen Pharmaceutica NV, priority 2007, dated 2012).

In one experiment the target is T1, PLK4 (h) (Homo sapiens, UniProt O00444).
T1 sequence (O00444 1-970): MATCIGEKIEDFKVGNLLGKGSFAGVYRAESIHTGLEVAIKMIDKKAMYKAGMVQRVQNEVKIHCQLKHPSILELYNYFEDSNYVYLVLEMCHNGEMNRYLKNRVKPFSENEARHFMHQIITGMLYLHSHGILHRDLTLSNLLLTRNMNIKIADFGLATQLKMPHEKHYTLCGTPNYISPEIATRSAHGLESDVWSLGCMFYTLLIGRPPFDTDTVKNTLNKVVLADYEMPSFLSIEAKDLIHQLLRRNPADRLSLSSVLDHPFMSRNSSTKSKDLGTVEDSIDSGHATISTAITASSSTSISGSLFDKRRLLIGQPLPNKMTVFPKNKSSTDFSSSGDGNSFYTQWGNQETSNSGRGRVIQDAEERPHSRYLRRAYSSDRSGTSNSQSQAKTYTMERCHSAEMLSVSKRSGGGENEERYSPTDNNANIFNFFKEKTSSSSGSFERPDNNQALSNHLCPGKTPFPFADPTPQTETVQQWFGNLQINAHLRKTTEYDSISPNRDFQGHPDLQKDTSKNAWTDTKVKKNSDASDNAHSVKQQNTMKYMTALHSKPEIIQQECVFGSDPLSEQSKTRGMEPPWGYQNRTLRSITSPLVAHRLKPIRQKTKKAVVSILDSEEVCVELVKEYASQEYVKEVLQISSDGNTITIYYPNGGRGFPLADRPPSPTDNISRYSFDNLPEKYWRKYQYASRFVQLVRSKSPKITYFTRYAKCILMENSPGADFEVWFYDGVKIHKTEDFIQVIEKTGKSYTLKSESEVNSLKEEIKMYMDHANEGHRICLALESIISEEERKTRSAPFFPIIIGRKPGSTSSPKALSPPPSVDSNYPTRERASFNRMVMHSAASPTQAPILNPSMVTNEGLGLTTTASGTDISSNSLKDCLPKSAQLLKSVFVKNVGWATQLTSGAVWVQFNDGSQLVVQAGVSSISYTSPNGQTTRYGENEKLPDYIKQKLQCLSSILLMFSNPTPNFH
The experiment is described as follows: PLK-4 human kinase scintillation proximity assay (SPA). Particulars: 1 μM ATP, 60 minutes at r.t., read-out: PLK4 pIC50 (converted). Format: biochemical. The protocol:
The in vitro inhibition of a panel of kinases was assessed using either the scintillation proximity assay (SPA) as described by Cook, N. D. et al., Advances in Experimental Medicine and Biology (1991), 36; p. 525-528.
In the SPA technology the activity of the kinase of interest is measured using an appropriate biotinylated substrate that is incubated with the aforementioned kinase protein in the presence of (^33P) radiolabeled ATP. (^33P) Phosphorylation of the substrate is subsequently measured through binding of the phosphorylated substrate to streptavidine coated beads that are based on the scintillant poly(vinyl toluene) (PVT-Beads). The scintillation intensity is detected by imaging on Leadseeker.
All kinases are pre-diluted to a 10× working concentration prior to addition into the assay. The composition of the dilution buffer for each kinase is detailed below.
In a final reaction volume of 30 μl, PLK4 (h) (19 μg/ml) is incubated with 50 mM Hepes pH 8.0, 10 mM MgCl2, 50 mM NaCl, 1 mM NaF, 1 mM DTT, 10 μM of peptide Biotin-RPRGQRDSSYYWE-OH, 1 μM ATP and 2 nM [γ-^33P-ATP] (6.0 μCi/ml). After incubation of 60 minutes at r.t., the reaction is stopped by addition of 40 μL of stop solution containing 8.7 mM EDTA, BSA 0.17%, 0.17% Triton X-100, 1.7 mg/ml SPA beads (GE-healthcare). The plate is centrifuged and read for Scintillation imaging on Leadseeker.
Background: Scintillation proximity formats need no separation of bound from free tracer.

In another experiment the test system is HCT-116. The experiment is described as follows: Cellular proliferation assay (Alamar blue), HCT-116. Format: cell-based. Particulars: Homo sapiens; HCT-116 cells; 10% FCS; 72 h with compound; Alamar blue 4 h; read-out: pIC50 HCT-116 (converted). The procedure:
(§1) Cellular proliferation of these compounds was tested on a panel of different cell lines in the presence of 10% FCS serum (37° C. and 5% (v/v) CO2). In a first step these cells were seeded and incubated for 24 hours in the absence of compound. In the second step the cells were incubated for 72 hours with the compounds to be tested for 72 hours. The viable cell number was finally assessed in a standard Alamar blue cell viability assay.
(§2) The viable cell number was assessed by incubation for either 4 h (HCT-116, H1299) 6 h (U87-MG) or 24 h (A2780, PC3, MDA-MB-231) with Alamar blue (Resazurin 9 μg/ml, K-Ferrocyanide 90 μM, K-Ferricyanide 90 μM) and the converted fluorescent product was quantified on a fluorescent plate readed (544 nm/590 nm). Effect of the compounds is calculated as of on control cells.
On the technique in general: Alamar Blue is a resazurin reagent that responds to reducing activity.

A further experiment concerns H1299. The experiment is described as follows: Cellular proliferation assay (Alamar blue), H1299. Format: cell-based. The following applies: Homo sapiens, NCI-H1299, H1299 cells; 10% FCS; 72 h with compound; Alamar blue 4 h; read-out: pIC50 H1299 (converted). The procedure: as §1, §2
In a further experiment the test system is U87-MG. Kind of experiment: Cellular proliferation assay (Alamar blue), U87-MG. The following applies: Homo sapiens, U-87 MG; U87-MG cells; 10% FCS; 72 h with compound; Alamar blue 6 h; read-out: pIC50 U87MG (converted). It counts as cell-based. The procedure: as §1, §2
A further experiment deals with A2780. Kind of experiment: Cellular proliferation assay (Alamar blue), A2780. It counts as cell-based. Particulars: Homo sapiens, A2780, A2780 cells; 10% FCS; 72 h with compound; Alamar blue 24 h; read-out: pIC50 A2780 (converted). The protocol:
as §1, §2

Another experiment deals with PC3. The experiment is described as follows: Cellular proliferation assay (Alamar blue), PC3. Format: cell-based. The following applies: Homo sapiens, PC-3, PC-3 cells; 10% FCS; 72 h with compound; Alamar blue 24 h; read-out: pIC50 PC-3 (converted). The procedure: as §1, §2
The next experiment has as its system MDA-MB-231. The experiment is described as follows: Cellular proliferation assay (Alamar blue), MDA-MB-231. Format: cell-based. Particulars: Homo sapiens, MDA-MB-231, MDA-MB-231 cells; 10% FCS; 72 h with compound; Alamar blue 24 h; read-out: pIC50 MDA/MB231 (converted). The protocol: as §1, §2

Where only a bound is given, the exact number is not on record here.

On to `COc1ccc2cc1OCCCC(=O)N(C)CCN(C)Cc1c[nH]c3ncnc(c13)N2` [Compound 1], for which the IC50 at PLK4 (h) is 0.126 µM; in the experiment on HCT-116, greater than 10 µM; in the experiment on H1299, greater than 10 µM; in the experiment on U87-MG, greater than 10 µM; in the experiment with A2780, greater than 10 µM; in the experiment with PC3, greater than 10 µM. Besides, the IC50 in the experiment on MDA-MB-231 is greater than 10 µM.
Turning to `CN1CCN(c2ccc3cc2OCCCC(=O)N(C)CCCN(C)Cc2c[nH]c4ncnc(c24)N3)CC1` [Compound 102], the IC50 is 3.98 µM on PLK4 (h); 6.31 µM in the experiment on HCT-116; 2.51 µM in the experiment on H1299; 6.31 µM in the experiment with A2780; 5.01 µM in the experiment with PC3; greater than 10 µM with MDA-MB-231.
Take `CN1CCN(c2ccc3cc2OCCCCC(=O)N2CCN(CC2)Cc2c[nH]c4ncnc(c24)N3)CC1` [Compound 108]: the IC50 on PLK4 (h) is 7.94 µM; in the experiment with HCT-116, greater than 10 µM; in the experiment with H1299 it was greater than 10 µM; in the experiment on A2780, greater than 10 µM; in the experiment on PC3, greater than 10 µM; in the experiment with MDA-MB-231, greater than 10 µM.
For the compound `CN1CCN(c2ccc3cc2OCCCC(=O)N2CCN(CC2)Cc2c[nH]c4ncnc(c24)N3)CC1` [Compound 109], the IC50 on PLK4 (h), in the experiment with HCT-116, in the experiment on H1299, in the experiment with A2780, in the experiment on PC3 and in the experiment with MDA-MB-231 was greater than 10 µM in each case.
Turning to `CN1CCCN(C)C(=O)COc2cc(ccc2NC(=O)Nc2cc(Cl)cc(Cl)c2)Nc2ncnc3[nH]cc(c23)C1` [Compound 115], the IC50 on PLK4 (h) is 0.158 µM; with HCT-116, 0.794 µM; with H1299, 1.58 µM; in the experiment on A2780, 1 µM; with PC3, greater than 10 µM; with MDA-MB-231, greater than 10 µM.
Take `CN1CCCN(C)C(=O)COc2cc(ccc2OCC(=O)N2CCOCC2)Nc2ncnc3[nH]cc(c23)C1` [Compound 117]: the IC50 at PLK4 (h) was 0.0501 µM; in the experiment on HCT-116, greater than 10 µM; in the experiment on H1299 it was greater than 10 µM; in the experiment on A2780, 3.98 µM; with PC3, greater than 10 µM; with MDA-MB-231, greater than 10 µM.
On to `Cc1nc2c3c(c[nH]c3n1)CN(C)CCCN(C)C(=O)COc1cc(ccc1Cl)N2` [Compound 148], for which the IC50 is 5.01 µM with HCT-116; 3.98 µM in the experiment with H1299; 3.16 µM in the experiment with U87-MG; 1.58 µM in the experiment with A2780; 5.01 µM with PC3; 10 µM in the experiment on MDA-MB-231.
On to `CCOCCOc1cc(OC)c2cc1OCC(=O)N(C)CCCN(C)Cc1c[nH]c3ncnc(c13)N2` [Compound 151], for which the IC50 in the experiment with HCT-116, in the experiment on H1299, with U87-MG, in the experiment with A2780, with PC3 and in the experiment on MDA-MB-231 was greater than 10 µM each time.
Turning to `COc1ccc2cc1N(C)CC(=O)N(C)CCCN(C)Cc1c[nH]c3ncnc(c13)N2` [Compound 153], the IC50 with HCT-116 was 1.58 µM; in the experiment on H1299 it was 3.98 µM; with U87-MG it was 3.16 µM; in the experiment with A2780, 2 µM; in the experiment with PC3, 6.31 µM; in the experiment on MDA-MB-231, 7.94 µM.
As to `CN1CCCN(C)C(=O)COc2cc(ccc2OCCOc2cc(C(F)(F)F)ccn2)Nc2ncnc3[nH]cc(c23)C1` [Compound 154], the IC50 in the experiment with HCT-116 is 0.316 µM; in the experiment on H1299, 0.631 µM; in the experiment with U87-MG, 1 µM; in the experiment with A2780, 0.251 µM; in the experiment with PC3 it was 5.01 µM; in the experiment with MDA-MB-231, 5.01 µM.
On to `CN1CCCN(C)C(=O)COc2cc(ccc2OCCNc2ncccn2)Nc2ncnc3[nH]cc(c23)C1` [Compound 159], for which the IC50 in the experiment with HCT-116 is 2 µM; with H1299, 6.31 µM; in the experiment on U87-MG, 3.16 µM; in the experiment on A2780, 1.58 µM; in the experiment with PC3 it was 7.94 µM; in the experiment with MDA-MB-231 it was greater than 10 µM.
